In US9969716B2, “Indole derivatives as modulators of methyl modifying enzymes, compositions and uses thereof” (Constellation Pharmaceuticals, Inc., priority 2013, dated 2018):

Columns and labels:
EZH2 = EZH2 (Homo sapiens, UniProt Q15910); experiment: EZH2 assay (rPRC2, 3H SAM methyl transfer to biotinylated oligonucleosomes, FlashPlate); format: biochemical
In short: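 rPRC2 (2 nM EZH2) with 0.2 μM biotinylated oligonucleosomes, 3.6 μM H3K27me3 peptide, 0.2 μM 3H SAM in pH 8.5 Tris buffer; compounds (80 to 0.16 μM) preincubated 20 min, reaction 60 min, SAH/EDTA quench. Methylated product captured on streptavidin FlashPlates, scintillation counted.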

[1] = test system: H3K27me3 mark in HeLa cells; experiment: H3K27me3 Alpha Hela Assay (AlphaLISA); format: cell-based; conditions: Homo sapiens, 72 hrs, read-out: EZH2_Cell_H3K27me3_Alpha_HeLa (EC50_K27me3)
In short: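 Ten-dose 3-fold series on HeLa cells (1,000/well, 10% DMEM), 72 hrs at 37° C. Lysis, histone extraction, then AlphaLISA with anti-K27me3 acceptor beads, biotinylated anti-H3 C-ter antibody (3 nM final) and streptavidin donor beads (20 μg/mL final); duplicate plate used for viability. DMSO-normalized dose-response curves fitted.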

Y641N EZH2 = Y641N EZH2 (Homo sapiens, UniProt Q15910, Y641N); experiment: Y641N EZH2 assay (as EZH2 assay, H3K27Me2 oligonucleosomes as substrate); format: biochemical
Experimental: EZH2 Assay: Assays were carried out by mixing rPRC2 together with biotinylated oligonucleosome substrates in the presence of the radio-labeled enzyme co-factor, S-adenosyl-L-methionine (^3H SAM) (Perkin Elmer) and monitoring the enzymatically mediated transfer of tritiated methyl groups from ^3H SAM to histone lysine residues. The amount of resulting tritiated methyl histone product was measured by first capturing the biotinylated oligonucleosomes in streptavidin (SAV) coated FlashPlates (Perkin Elmer), followed by a wash step to remove un-reacted ^3H SAM, and then counting on a TopCount NXT 384 well plate scintillation counter (Perkin Elmer). The final assay conditions for EZH2 were as follows: 50 mM Tris Buffer pH 8.5, 1 mM DTT, 69 μM Brij-35 detergent, 5.0 mM MgCl2, 0.1 mg/mL BSA, 0.2 μM ^3H SAM, 0.2 μM biotinylated oligonucleosomes, 3.6 μM H3K27me3 peptide and 2 nM EZH2.
A 12.5 μL volume of the HMT enzyme, H3K27me3 peptide and oligonucleosome substrate in assay buffer was added to each well of the assay plate using a Multidrop Combi (ThermoFisher). Compounds were pre-incubated with the enzyme for 20 min, followed by initiation of the methyltransferase reaction by addition of 12.5 μL of ^3H SAM in assay buffer (final volume=25 μL). The final concentrations of compounds ranged from a top default concentration of 80 μM down to 0.16 μM in ten 2-fold dilution steps. Reactions were carried out for 60 minutes and quenched with 20 μL per well of 1.96 mM SAH, 50 mM Tris pH 8.5, 200 mM EDTA. Stopped reactions were transferred to SAV coated Flashplates (Perkin Elmer), incubated for 120 min, washed with a plate washer, and then read on the TopCount NXT (1.0 min/well) to measure the amount of methyl histone product formed during the reaction.

EZH2, sequence (Q15910 whole entry): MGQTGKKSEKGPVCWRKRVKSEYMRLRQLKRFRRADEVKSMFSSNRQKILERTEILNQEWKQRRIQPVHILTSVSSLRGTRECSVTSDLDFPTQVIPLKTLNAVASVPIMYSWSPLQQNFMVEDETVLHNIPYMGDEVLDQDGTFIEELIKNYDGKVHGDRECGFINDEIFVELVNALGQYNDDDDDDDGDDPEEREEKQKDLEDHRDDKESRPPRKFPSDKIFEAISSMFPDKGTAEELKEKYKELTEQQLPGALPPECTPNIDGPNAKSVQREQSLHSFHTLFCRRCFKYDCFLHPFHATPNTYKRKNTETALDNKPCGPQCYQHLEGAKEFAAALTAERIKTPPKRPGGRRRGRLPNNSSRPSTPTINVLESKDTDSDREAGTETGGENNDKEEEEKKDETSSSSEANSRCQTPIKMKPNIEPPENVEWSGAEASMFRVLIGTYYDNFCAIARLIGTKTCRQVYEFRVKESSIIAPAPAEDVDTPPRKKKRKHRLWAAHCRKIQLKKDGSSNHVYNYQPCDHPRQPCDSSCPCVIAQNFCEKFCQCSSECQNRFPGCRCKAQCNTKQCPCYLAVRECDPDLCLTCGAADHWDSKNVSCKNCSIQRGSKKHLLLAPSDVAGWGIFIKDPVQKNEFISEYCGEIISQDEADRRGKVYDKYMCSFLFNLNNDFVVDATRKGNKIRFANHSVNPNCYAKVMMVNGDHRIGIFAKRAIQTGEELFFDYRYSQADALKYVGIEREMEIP
EZH2, sequence (O75530 whole entry partner): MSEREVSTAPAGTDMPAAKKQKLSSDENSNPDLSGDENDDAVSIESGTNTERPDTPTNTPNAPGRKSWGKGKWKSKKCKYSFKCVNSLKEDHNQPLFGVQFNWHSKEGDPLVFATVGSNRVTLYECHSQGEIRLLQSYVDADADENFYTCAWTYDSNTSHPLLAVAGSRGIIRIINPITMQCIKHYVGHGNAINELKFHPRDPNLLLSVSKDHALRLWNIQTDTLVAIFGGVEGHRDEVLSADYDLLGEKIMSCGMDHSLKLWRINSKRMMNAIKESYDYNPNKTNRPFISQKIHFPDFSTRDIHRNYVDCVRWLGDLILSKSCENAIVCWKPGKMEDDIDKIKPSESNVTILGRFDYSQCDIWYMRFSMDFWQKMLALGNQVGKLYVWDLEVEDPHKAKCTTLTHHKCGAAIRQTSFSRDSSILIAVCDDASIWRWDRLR
EZH2, sequence (Q15022 whole entry partner): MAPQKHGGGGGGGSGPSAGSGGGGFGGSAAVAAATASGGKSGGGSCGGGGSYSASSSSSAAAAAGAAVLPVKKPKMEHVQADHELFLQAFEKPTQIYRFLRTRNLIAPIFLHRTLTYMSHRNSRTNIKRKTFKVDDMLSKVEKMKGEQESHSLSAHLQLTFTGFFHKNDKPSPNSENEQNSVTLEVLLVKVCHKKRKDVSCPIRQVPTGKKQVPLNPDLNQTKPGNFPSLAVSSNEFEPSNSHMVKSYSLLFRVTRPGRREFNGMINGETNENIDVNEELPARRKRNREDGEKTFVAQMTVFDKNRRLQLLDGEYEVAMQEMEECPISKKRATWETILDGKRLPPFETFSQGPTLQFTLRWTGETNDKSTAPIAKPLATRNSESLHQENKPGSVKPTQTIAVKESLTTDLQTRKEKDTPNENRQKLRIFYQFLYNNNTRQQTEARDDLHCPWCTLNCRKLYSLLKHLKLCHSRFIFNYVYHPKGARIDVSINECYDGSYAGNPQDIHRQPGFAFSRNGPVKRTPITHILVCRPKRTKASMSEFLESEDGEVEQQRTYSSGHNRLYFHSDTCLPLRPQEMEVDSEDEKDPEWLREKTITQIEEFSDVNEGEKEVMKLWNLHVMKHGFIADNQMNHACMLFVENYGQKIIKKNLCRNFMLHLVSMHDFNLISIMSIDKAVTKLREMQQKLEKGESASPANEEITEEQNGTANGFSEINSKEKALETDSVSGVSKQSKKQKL
Y641N EZH2, sequence (Q15910 whole entry Y641N): as the sequence (Q15910 whole entry) above, with Y641N counted along it
Y641N EZH2, sequence (O75530 whole entry partner): as the sequence (O75530 whole entry partner) above
Y641N EZH2, sequence (Q15022 whole entry partner): as the sequence (Q15022 whole entry partner) above

| SMILES | IC50 (EZH2) [nM] | EC50 [1] [nM] | IC50 (Y641N EZH2) [nM] |
| --- | --- | --- | --- |
| COc1cc(C)[nH]c(=O)c1CNC(=O)c1c(C)n([C@H](C)C2CCN(S(=O)(=O)C3CC3)CC2)c2ccccc12 [Compound 117, (R)-1-(1-(1-(cyclopropylsulfonyl)piperidin-4-yl)ethyl)-N-((4-methoxy-6-methyl-2-oxo-1,2-dihydropyridin-3-yl)methyl)-2-methyl-1H-indole-3-carboxamide] | < 100 | < 400 | < 100 |
| COc1cc(C)[nH]c(=O)c1CNC(=O)c1c(C)n([C@H](C)C2CCN(CC3(F)CCC3)CC2)c2ccccc12 [Compound 118] | < 100 | < 400 | < 100 |
| COc1cc(C)[nH]c(=O)c1CNC(=O)c1c(C)n([C@H](C)C2CCN(CC3(F)CC3)CC2)c2ccccc12 [Compound 119] | < 100 | < 400 | < 100 |
| COc1cc(C)[nH]c(=O)c1CNC(=O)c1c(C)n([C@H](C)C2CCN(c3ncc(F)cn3)CC2)c2ccccc12 [Compound 120] | < 100 | < 400 | < 100 |
| COc1cc(C)[nH]c(=O)c1CNC(=O)c1c(C)n([C@H](C)C2CCN(C[C@H](OC)C(F)(F)F)CC2)c2ccccc12 [Compound 121] | < 100 | < 400 | < 100 |
| COc1cc(C)[nH]c(=O)c1CNC(=O)c1c(C)n([C@H](C)C2CCN(Cc3ccc(F)cc3)CC2)c2ccccc12 [Compound 122] | < 100 | < 400 | < 100 |
| CCS(=O)(=O)N1CCC([C@@H](C)n2c(C)c(C(=O)NCc3c(NC)cc(C)[nH]c3=O)c3ccccc32)CC1 [Compound 123] | < 100 | < 400 | < 100 |
| COc1cc(C)[nH]c(=O)c1CNC(=O)c1c(C)n([C@H](C)C2CCN(c3ncc(Br)cn3)CC2)c2ccccc12 [Compound 124, (R)-1-(1-(1-(5-bromopyrimidin-2-yl)piperidin-4-yl)ethyl)-N-((4-methoxy-6-methyl-2-oxo-1,2-dihydropyridin-3-yl)methyl)-2-methyl-1H-indole-3-carboxamide] | < 100 | < 400 | < 100 |
| COc1cc(C)[nH]c(=O)c1CNC(=O)c1c(C)n([C@H](C)C2CCN(c3cccnc3)CC2)c2ccccc12 [Compound 125] | < 100 | < 400 | < 100 |
| Cc1cc(Cl)c(CNC(=O)c2c(C)n([C@H](C)C3CCN(CCF)CC3)c3ccccc23)c(=O)[nH]1 [Compound 126] | < 100 | < 400 | < 100 |
| COc1cc(C)[nH]c(=O)c1CNC(=O)c1c(C)n([C@H](C)C2CCN(C(=O)C(C)(C)C)CC2)c2ccccc12 [Compound 129] | < 100 | < 400 | < 100 |
| COc1cc(C)[nH]c(=O)c1CNC(=O)c1c(C)n([C@H](C)C2CCN(c3ncc(Cl)cn3)CC2)c2ccccc12 [Compound 130] | < 100 | < 400 | < 100 |
| COc1cc(C)[nH]c(=O)c1CNC(=O)c1c(C)n([C@H](C)C2CCN(c3ccc(F)cn3)CC2)c2ccccc12 [Compound 131] | < 100 | < 400 | < 100 |
| COc1cc(C)[nH]c(=O)c1CNC(=O)c1c(C)n([C@H](C)C2CCN(c3ccc(C)nc3)CC2)c2ccccc12 [Compound 133] | < 100 | < 400 | < 100 |
| Cc1cc(C)c(CNC(=O)c2c(C)n([C@H](C)C3CCN(S(=O)(=O)CCN4CCOCC4)CC3)c3ccccc23)c(=O)[nH]1 [Compound 134] | < 100 | < 400 | < 100 |
| COc1cc(C)[nH]c(=O)c1CNC(=O)c1c(C)n([C@H](C)C2CCN(CC(C)(C)C(F)(F)F)CC2)c2ccccc12 [Compound 136] | 100 to 1000 | < 400 | 100 to 1000 |
| COc1cc(C)[nH]c(=O)c1CNC(=O)c1c(C)n([C@H](C)C2CCN(S(=O)(=O)c3ccc(F)cc3)CC2)c2ccccc12 [Compound 137] | < 100 | < 400 | < 100 |
| COc1cc(C)[nH]c(=O)c1CNC(=O)c1c(C)n([C@H](C)C2CCN(S(=O)(=O)c3ccccc3)CC2)c2ccccc12 [Compound 138] | < 100 | < 400 | < 100 |
| Cc1cc(C)c(CNC(=O)c2c(C)n([C@H](C)C3CCN(S(=O)(=O)C4CCN(C)CC4)CC3)c3ccccc23)c(=O)[nH]1 [Compound 139] | < 100 | < 400 | < 100 |

| SMILES | IC50 (EZH2) [nM] | EC50 [1] [nM] | IC50 (Y641N EZH2) [nM] |
| --- | --- | --- | --- |
| COCCOCCOC(=O)N1CCC([C@@H](C)n2c(C)c(C(=O)NCc3c(OC)cc(C)[nH]c3=O)c3ccccc32)CC1 [Compound 140] | < 100 | < 400 | < 100 |
| COc1cc(C)[nH]c(=O)c1CNC(=O)c1c(C)n([C@H](C)C2CCN(c3ccc(F)cc3)CC2)c2ccccc12 [Compound 141] | < 100 | < 400 | < 100 |
| Cc1cc(Cl)c(CNC(=O)c2c(C)n([C@H](C)C3CCN(CC(C)(C)O)CC3)c3ccccc23)c(=O)[nH]1 [Compound 142] | < 100 | < 400 | < 100 |
| Cc1cc(OC(F)F)c(CNC(=O)c2c(C)n([C@H](C)C3CCN(CCC(F)(F)F)CC3)c3ccccc23)c(=O)[nH]1 [Compound 143] | < 100 | < 400 | < 100 |
| Cc1cc(C)c(CNC(=O)c2c(C)n([C@H](C)C3CCN(c4cccc(CN5CCOCC5)c4)CC3)c3ccccc23)c(=O)[nH]1 [Compound 144] | < 100 | 400 to 2000 | < 100 |
| COc1cc(C)[nH]c(=O)c1CNC(=O)c1c(C)n([C@H](C)C2CCN(CC3CC3)CC2)c2ccccc12 [Compound 145] | < 100 | 400 to 2000 | < 100 |
| CNc1cc(C)[nH]c(=O)c1CNC(=O)c1c(C)n([C@H](C)C2CCN(c3ncc(F)cn3)CC2)c2ccccc12 [Compound 146] | < 100 | 400 to 2000 | < 100 |
| Cc1cc(C)c(CNC(=O)c2c(C)n([C@H](C)C3CCN(S(=O)(=O)C4CN(C)C4)CC3)c3ccccc23)c(=O)[nH]1 [Compound 147] | < 100 | 400 to 2000 | < 100 |
| COc1cc(C)[nH]c(=O)c1CNC(=O)c1c(C)n([C@H](C)C2CCN(Cc3ccccn3)CC2)c2ccccc12 [Compound 148] | < 100 | 400 to 2000 | < 100 |
| COc1cc(C)[nH]c(=O)c1CNC(=O)c1c(C)n([C@H](C)C2CCN(c3cnccn3)CC2)c2ccccc12 [Compound 149] | < 100 | 400 to 2000 | < 100 |
| COc1cc(C)[nH]c(=O)c1CNC(=O)c1c(C)n([C@H](C)C2CCN(Cc3c(F)cccc3F)CC2)c2ccccc12 [Compound 150] | < 100 | 400 to 2000 | < 100 |
| CCc1cc(C)[nH]c(=O)c1CNC(=O)c1c(C)n([C@H](C)C2CCN(CCC(F)(F)F)CC2)c2ccccc12 [Compound 151] | < 100 | 400 to 2000 | < 100 |
| COc1cc(C)[nH]c(=O)c1CNC(=O)c1c(C)n([C@H](C)C2CCN(CCCC(F)(F)F)CC2)c2ccccc12 [Compound 152] | < 100 | 400 to 2000 | < 100 |
| COc1cc(C)[nH]c(=O)c1CNC(=O)c1c(C)n([C@H](C)C2CCN(C(=O)c3ccccc3)CC2)c2ccccc12 [Compound 153] | < 100 | 400 to 2000 | < 100 |
| COc1cc(C)[nH]c(=O)c1CNC(=O)c1c(C)n([C@H](C)C2CCN(c3ccc(Cl)cc3)CC2)c2ccccc12 [Compound 154] | < 100 | 400 to 2000 | < 100 |
| CNc1cc(C)[nH]c(=O)c1CNC(=O)c1c(C)n([C@H](C)C2CCN(CCC(F)(F)F)CC2)c2ccccc12 [Compound 155] | < 100 | 400 to 2000 | < 100 |
| COc1cc(C)[nH]c(=O)c1CNC(=O)c1c(C)n([C@H](C)C2CCN(C[C@H](O)C(F)(F)F)CC2)c2ccccc12 [Compound 156] | < 100 | 400 to 2000 | < 100 |
| COc1cc(C)[nH]c(=O)c1CNC(=O)c1c(C)n([C@H](C)C2CCN(C(=O)C3CC3)CC2)c2ccccc12 [Compound 157] | < 100 | 400 to 2000 | < 100 |
